These are literature values, as cited in patent publication US20210069187A1, “Stable pharmaceutical composition of Selexipag” (RK Pharma Solutions LLC, priority 2019, published 2021).

SMILES strings stand for the structures.

Assay in data set [1]: not given
The source holds these as a separate data set.

Take `CC(C)N(CCCCOCC(=O)NS(C)(=O)=O)c1cnc(-c2ccccc2)c(-c2ccccc2)n1` [Selexipag, 2-{4-[N-(5,6-diphenylpyrazin-2-yl)-N-isopropylamino]butyloxy}-N-(methylsulfonyl)acetamide]: the “stability in the solid state” value is on record as “very stable”. Where the note is “solid state”, the hygroscopicity result is reported as “not hygroscopic” and the light sensitivity result is “not light sensitive”. Moreover, the solubility in water entry in data set [1] is recorded as “practically insoluble”.
